The values that follow are results of earlier work, collected in article PMC6602202, “Enteroendocrine peptides regulate feeding behavior via controlling intestinal contraction of the silkworm Bombyx mori” (PLoS ONE, 2019).

The test system of series [1] is gut. As to conditions: Periplaneta americana; cited from earlier work. The text has this: (§1) AT-producing EEs (Fig 2C and 2D) and GSRYamide-producing EEs (Fig 2E and 2F) also have the potential to deliver secretory granules containing peptidyl factors to the hemocoel side through a cellular membrane. Those EEs have similar cellular morphology to EEs releasing other arthropod neuropeptide CCAP (Crustacean cardioactive peptide) observed in the American cockroac ...

Series [2] relates to foregut of Helicoverpa armigera. As to conditions: cited from earlier work.
Text: as §1

In series [3] the test system is foregut of Lacanobia oleracea. As to conditions: cited from earlier work.
Text: as §1

Series [4] deals with hindgut of Leucophaea maderae. As to conditions: cited from earlier work.
Text: as §1

Series [5] has as its system D. melanogaster. As to conditions: cited from earlier work. The text has this: Peptides having C-terminal RYamide sequences constitute a neuropeptide Y (NPY) family, which is conserved both in vertebrates and invertebrate.
For series [6], the system named is B. mori larvae. As to conditions: cited from earlier work. The text has this: Among the feeding regulatory peptides in insects, several peptides are known as ‘brain-gut peptides’, which are expressed and produced in the brain and intestinal organs. […] These peptides may regulate not only the physiological functions related to digestion and intestinal lipid metabolisms but also the intestin ... || The myoinhibitory activities of AT and GSRYa-1 and -2 in the foregut (pharynx and esophagus) and hindgut (ileum) (Figs 5E, 5F and 6E) seem to be linked to the delay in feeding initiation in B. mori larvae (Figs 1D and 6B).

The subject of series [7] is D. melanogaster. Particulars: cited from earlier work. The text has this: The myoinhibitory activities of AT and GSRYa-1 and -2 in the foregut (pharynx and esophagus) and hindgut (ileum) (Figs 5E, 5F and 6E) seem to be linked to the delay in feeding initiation in B. mori larvae (Figs 1D and 6B).
The source holds these as a separate data set.

The subject of series [8] is Schistocerca. gregaria. As to conditions: cited from earlier work.

In the case of Crustacean cardioactive peptide [CCAP], the “effect on gut contraction” value in series [1] is “multiple roles, including gut contraction”.

Consider allatostatin [AST, reference compound], for which the “effect on spontaneous contraction of the foregut, H. armigera” value in series [2] was “regulate spontaneous contraction of the foregut”. The “effect on spontaneous contraction of the foregut, L. oleracea” value in series [3] is “regulate spontaneous contraction of the foregut”.

Regarding myosuppressin (leukomyosuppressin), the “effect on spontaneous contraction of the foregut, L. oleracea” value in series [3] is recorded as “regulates spontaneous contraction of the foregut”. Besides, the “effect on spontaneous contraction of the hindgut, L. maderae” value in series [4] is “regulates spontaneous contraction of the foregut of Lacanobia oleracea [66] and the hindgut of Leucophaea maderae”.

Consider neuropeptide F [NPF], for which the “effect on larval feeding behavior” value in series [5] is “regulate larval feeding behavior”.

Turning to short neuropeptide F (sNPF) -2 [sNPF-2], the “effect on feeding initiation, peptides” value in series [6] was “feeding acceleratory effects that can shorten the latency to the initiation of feeding”.

Regarding short neuropeptide F [sNPF], in series [7], the “effect on food intake and body weight” value was “stimulates food intake and body weight gain”. For the same substance, in series [8], the “effect on food intake” value is reported as “an inhibitory effect on food intake”. Besides, the “effect on feeding initiation, peptides” value in series [6] is “feeding acceleratory effect”.

Consider “tachykinin-related peptides [B. mori TRPs]”, for which the “effect on feeding initiation, peptides” value in series [6] is “feeding acceleratory effects that can shorten the latency to the initiation of feeding”.
